{"source": "patent US11331371B2", "about": "“Labyrinthopeptins as anti-viral agents” (Helmholtz-Zentrum Für Infektionsforschung GMBH, priority 2015, dated 2022)", "key": {"[1]": {"test_system": "Dengue Virus (Type 2 New Guinea C)", "test": "Dose response assay, DENV infection of Huh-7.5 cells, DENV envelope protein immunostaining, high-content imaging", "format": "cell-based", "conditions": "MOI 0.5, 48 h post-infection; for IC50: read-out: IC50 of the anti-viral activity, DENV", "description": "Huh-7.5 cells (3×10^4 per well) were seeded in black 96-well optical-bottom plates [Nunc] in full growth medium one day prior to infection. After washing with PBS, 40 μl assay medium (5% FBS) was added to cells containing either Laby A1, Laby A2 (final conc. 50, 16.7, 5.56, 1.85, 0.62, 0.21, 0.069 μg/ml) or a combination of Laby A1 and Laby A2 (25, 8.3, 2.8, 0.93, 0.31, 0.10, 0.034 μg/ml each). Treatments were run in doublets. PBS served as a control. After 30 min of incubation, cells were infected with Dengue Virus (Type 2 New Guinea C) at an MOI of 0.5 to give a final volume of 60 μl/well. After 2 h incubation at room temperature cells were washed with PBS and 100 μl assay medium was added per well. Infected cells were incubated for another 48 h. Hereafter media were removed from the wells and cells were fixed with 4% PFA. Fixed cells were washed extensively with PBS and permeabilized with 0.25% TritonX-100 for 5 min. After blocking with 5% FB in PBS primary antibody was applied (Anti-Dengue Virus E glycoprotein antibody [DE1] (ab41349) [Abcam], 1:100 diluted in 5% FBS/PBS) for 2 h. After washing secondary antibody (Alexa Fluor® 488 Goat Anti-Mouse IgG (H+L) [Life Technologies], 1:1000 diluted in 5% FBS/PBS) was applied for 1 h. Finally, cells were stained with DAPI (500 ng/ml in PBS) for 5 min.\nFluorescent cells were analyzed by high-content imaging using the automated microscope ImageXpressMicro [Molecular Devices] and the MetaXpress-software. […] The number of total cells/site was determined by automatically counting DAPI-stained nuclei. The percentage of DENV-positive cells was calculated by automatically evaluating the number of Alexa Fluor 488-positive cells in relation to the total cell number. […] IC50-values were calculated by non-linear regression.\nTo determine a potential synergistic effect of Labyrinthopeptins A1 and A2 on DENV-infection a dose response assay was performed. […] The number of total cells as well as the percentage of Alexa Fluor 488-positive cells (=DENV positive cells) was determined by high-content fluorescence imaging."}, "[2]": {"test": "Cell-based HTS system for cytotoxic concentration (CC50), FF-luc HEp-2 cells", "conditions": "72 h, concentrations up to 100 μM, read-out: half maximal cytotoxic concentration (CC50)", "description": "Cells (e.g. HEp-2 cells), which stably express the reporter gene of a firefly luciferase (FF-luc), may be seeded in a 96-well plate in media, e.g. in Gibco® Advanced MEM. After 72 h of incubation at 37° C. in the presence of increasing concentrations of the labyrinthopeptin, labyrinthopeptin derivative or combination to be tested (e.g. up to 100 μM), the cells may be lysed and the extinction of the FF-luc (RLU) may be measured. Therefore, a plate luminometer (Berthold) may be used. The number of surviving cells is […] proportional to residual luciferase expression.\nA cell-based screening system was used to determine the cytotoxic concentration (CC50) of labyrinthopeptin A1 and A2.\n1×10^4 HEp-2 cells, which are stably expressing the reporter gene of a firefly luciferase (FF-luc), were seeded in a 96-well plate in 200 μl appropriate media. After 72 h of incubation at 37° C. in the presence of increasing concentrations of labyrinthopeptin A1 or A2 up to 100 μM, the cells have been lysed in 35 μl lysis buffer and the extinction of the FF-luc (RLU) was measured using a plate luminometer (Berthold). The number of surviving cells is […] proportional to residual luciferase expression."}, "[3]": {"test_system": "wild-type RSV (hRSV)", "conditions": "read-out: IC50 of the anti-viral activity, RSV; intracellular RSV-P staining, HEp 2 cells, MOI 1, 18 h post infection"}, "[4]": {"test_system": "human respiratory syncytial virus (RSV)", "conditions": "read-out: IC50, inhibition of RSV induced cell death; FF-luc HEp-2 cells, MOI 3, 72 h, indirect assay"}, "[5]": {"test_system": "KSHV", "conditions": "read-out: IC50 of the anti-viral activity, KSHV; HEK 293 cells, MOI 0.01, 48 h"}, "[6]": {"test_system": "TBEV (Toro isolate)", "conditions": "read-out: IC50 of the anti-viral activity, TBEV; Vero-B4 cells, MOI 0.01, 3 days, estimated by visual inspection"}, "[7]": {"test_system": "GFP-expressing CMV (HCMV) strain pHG-1 (HT8-GFP, AD169-based)", "conditions": "read-out: IC50 of the anti-viral activity, CMV, NHDF cells, MOI 0.5, GFP at day 4 post infection"}, "[8]": {"test_system": "CHIKV glycoprotein-mediated cell entry (CHIKV gp-pseudotyped lentiviral particles)", "conditions": "CHIKV glycoprotein pseudotypes, 293T cells, 48 h"}, "[9]": {"test_system": "VSV glycoprotein-mediated cell entry (VSV-G-pseudotyped lentiviral particles)", "conditions": "48 h"}, "[10]": {"test_system": "ZIKV (Strain MR766-NIID)", "conditions": "read-out: IC50 of the anti-viral activity, ZIKV; Huh-7.5 cells, MOI 0.5, 48 h, genome copy equivalents"}, "[11]": {"test_system": "HCV JcR2a", "conditions": "Huh 7.5 Fluc cells, Renilla luciferase after 48 h"}, "[12]": {"test_system": "peripheral blood mononuclear cells (PBMCs)", "conditions": "cited from earlier work"}, "[13]": {"test_system": "Huh 7.5 Fluc cells", "test": "Cell viability (firefly luciferase) in the HCV assay"}, "[14]": {"test_system": "GFP-expressing CMV strain HT8-GFP (AD169)", "test": "Mode of action assay, pretreatment of CMV particles or NHDF cells", "format": "cell-based, Human cytomegalovirus", "conditions": "LabyA1 3 μM, LabyA2 7 μM, PAA 180 μM"}}, "note": "Read-outs that look alike come from different tables or passages of the source."}
{"smiles": "C/C=C1\\NC(=O)[C@H](Cc2ccccc2)NC(=O)[C@@H]2CCCN2C(=O)[C@H](C(C)C)NC(=O)[C@H](Cc2c[nH]c3ccccc23)NC(=O)[C@]23CSC[C@H](NC1=O)C(=O)N[C@H](C(=O)O)CSSC[C@H](NC(=O)[C@@H]1CSC[C@]4(C[C@H](N)C(=O)N[C@@H](CC(N)=O)C(=O)N[C@@H](C)C(=O)N4)C(=O)N[C@@H](C(C)C)C(=O)N[C@@H](Cc4c[nH]c5ccccc45)C(=O)N[C@@H](CCC(=O)O)C(=O)N1)C(=O)N[C@@H](C2)C(=O)N[C@@H]([C@@H](C)O)C(=O)NCC(=O)N3", "note": "[LabyA1, Labyrinthopeptin A1]", "values": [{"measurement": "IC50", "setting": "[1]", "value": 1780, "unit": "nM"}, {"measurement": "CC50", "setting": "[2]", "value": 79700, "unit": "nM"}, {"measurement": "IC50", "setting": "[3]", "value": 390, "unit": "nM"}, {"measurement": "IC50", "setting": "[4]", "value": 3870, "unit": "nM"}, {"measurement": "IC50", "setting": "[5]", "value": 2000, "unit": "nM"}, {"measurement": "IC50", "setting": "[6]", "value": 24100, "unit": "nM"}, {"measurement": "IC50", "setting": "[7]", "value": 1300, "unit": "nM"}, {"measurement": "IC50", "setting": "[7]; listed as Labyrinthopeptin A1", "value": "~1300", "unit": "nM"}, {"measurement": "IC50 of the anti-viral activity, CHIKV", "setting": "[8]", "value": "1.0 to 3.5", "unit": "µg/mL"}, {"measurement": "IC50", "setting": "[8]; read-out: IC50 of the anti-viral activity, CHIKV", "value": "500 to 1700", "unit": "nM"}, {"measurement": "IC50", "setting": "[9]", "value": "1100 to 3700", "unit": "nM"}, {"measurement": "IC50 of the anti-viral activity, VSV", "setting": "[9]", "value": "2.3 to 7.7", "unit": "µg/mL"}, {"measurement": "IC50", "setting": "[10]", "value": 2220, "unit": "nM"}, {"measurement": "IC50", "setting": "[11]; read-out: IC50 of the anti-viral activity, HCV (virus entry), 4 h inoculation", "value": 1050, "unit": "nM"}, {"measurement": "IC90", "setting": "[11]; read-out: IC90, inhibition of HCV virus entry", "value": 9160, "unit": "nM"}, {"measurement": "inflammatory response in PBMCs", "setting": "[12]", "value": "does not cause an inflammatory response"}, {"measurement": "cytotoxicity at the tested concentrations in the HCV assay", "setting": "[13]", "value": "No cytotoxicity was observed"}]}
{"smiles": "C#CCCCC(=O)N[C@H]1C[C@]2(CSC[C@@H](C(=O)N[C@H]3CSSC[C@@H](C(=O)O)NC(=O)[C@@H]4CSC[C@]5(C[C@H](NC3=O)C(=O)N[C@@H]([C@@H](C)O)C(=O)NCC(=O)N5)C(=O)N[C@@H](CC(C)C)C(=O)N[C@@H](Cc3ccccc3)C(=O)N[C@@H](C)C(=O)N4)NC(=O)[C@H](CCC(=O)O)NC(=O)[C@H](Cc3c[nH]c4ccccc34)NC(=O)[C@H](CC(C)C)NC2=O)NC(=O)[C@H](Cc2c[nH]c3ccccc23)NC(=O)[C@H](CC(=O)O)NC1=O", "note": "[LabyA2-hexyn]", "values": [{"measurement": "IC50 of the anti-viral activity, DENV", "setting": "[1]", "value": 14.2, "unit": "µg/mL"}, {"measurement": "IC50", "setting": "[1]", "value": 7030, "unit": "nM"}]}
{"smiles": "O=C(O)CP(=O)(O)O", "note": "[PAA, phosphonoacetic acid]", "values": [{"measurement": "inhibition of viral gene expression (CMV), permanently treated, effective dose", "setting": "[14]; treatment throughout the infection cycle", "value": "exerted inhibition only when permanently present in the culture medium"}, {"measurement": "inhibition of viral gene expression (CMV), virus pretreated", "setting": "[14]; virus pretreated 1 h then diluted 16-fold", "value": "not when it was removed after pretreatment of the virus or cells"}]}
